Consider seven compounds from patent US4804684A, “Symmetrical O-substituted dioximes of benzo-fused β-diketocyclo-alkylenes, the processes for their preparation and their application as drugs” (Panmedica S.A., priority 1986, dated 1989).

Test [1] concerns platelet-rich human plasma; platelet aggregation induced by ADP. Nature of the test: Platelet aggregation (platelet-rich human plasma) induced in vitro by ADP. Type of test: cell-based. The note with it: platelet-rich human plasma, 300,000 platelets/cm^2, 2.0 μg/ml of ADP; read-out: IC50, inductor: ADP. As to the method:
(§1) Study of the Effects on the Platelet Aggregation (Platelet-Rich Human Plasma) Induced in Vitro By: ADP, Collagen or Arachidonic Acid Blood samples from volunteer donors are treated and adjusted to a platelet concentration of 300,000/cm^2 and then incubated with different concentrations of the test products. Aggregation is induced by 2.0 μg/ml of ADP or by 10.0 μg/ml of collagen. The measurements are made using a Bryston-type aggregometer--or CHRONOLOG. The changes in optical density are noted and the values of the concentrations which cause a 50% inhibition are calculated.

The subject of test [2] is platelet-rich human plasma; platelet aggregation induced by collagen. Briefly: Platelet aggregation (platelet-rich human plasma) induced in vitro by collagen. It counts as cell-based. Conditions: platelet-rich human plasma, 300,000 platelets/cm^2, 10.0 μg/ml of collagen; read-out: IC50, inductor: collagen. As to the method: as §1
Test [3] concerns isolated guinea-pig intestine. Briefly: Antagonistic effects on isolated guinea-pig intestine (MAGNUS). Conditions: 0.1 μg/ml.
In test [4] the test system is platelet aggregation. Nature of the test: In vitro inhibition of platelet aggregation (BORN's method), induced by collagen or ADP. Type of test: cell-based, animal and human. Conditions: 100 μg/ml, aspirin as reference. As for the experimental part: In vitro inhibition of platelet aggregation The inhibition of platelet aggregation is measured in vitro by BORN's method (Nature 4832, 927 (1962)), the aggregation being induced by collagen or ADP. […] The aggregation can also be induced in vitro by serotonin, arachidonic acid and norepinephrine. Furthermore, this inhibitory effect was observed on platelet-rich plasma (PRP) of animal origin and human origin.

Structures can show the parent of a compound that is named as a salt.

With `Cl.Cl.c1cncc(CON=C2CC(=NOCc3cccnc3)c3ccccc3-c3ccccc32)c1` [Example 14, 5,7-Bis(pyridin-3-ylmethoxyimino)-6,7-dihydro-(5H)-dibenzo[a,c]cycloheptene dihydrochloride], the results for the IC50 in test [1] and in test [2] were 460 µg/mL and 600 µg/mL, respectively. Moreover, in test [3], the “inhibitory effect on isolated guinea-pig intestine” value (“inhibitory effect” for short) is reported as “still substantial”.

As for `CCN(CC)CCON=C1CC(=NOCCN(CC)CC)c2ccccc2-c2ccccc21.Cl.Cl` [Example 15, 5,7-Bis(2-Diethylaminoethoxyimino)-6,7-Dihydro-(5H)-Dibenzo[a,c]Cycloheptene Dihydrochloride], the values for the IC50 in test [1] and in test [2] were 10 µg/mL and 24 µg/mL, respectively. In addition, in test [3], the “inhibitory effect” value was “still substantial”. The “inhibition of platelet aggregation compared with aspirin” value (“inhibition … compared with aspirin” below) in test [4] is recorded as “comparable or even superior to aspirin”.

As to `CCN(CC)CCON=C1CC(=NOCCN(CC)CC)c2ccccc2-c2ccccc21.O=C(O)/C=C\C(=O)O.O=C(O)/C=C\C(=O)O` [Example 16, 5,7-Bis(2-Diethylaminoethoxyimino)-6,7-Dihydro-(5H)-Dibenzo[a,c]Cycloheptene Dimaleate], the results for the IC50 in test [1] and in test [2] were 16 µg/mL and 22 µg/mL, respectively. The “inhibitory effect” value in test [3] is “still substantial”. Besides, the “inhibition … compared with aspirin” value in test [4] is “comparable or even superior to aspirin”.

On to `CCN(CC)CCON=C1CC(=NOCCN(CC)CC)c2ccccc2-c2ccccc21.O=C(O)C(O)C(O)C(=O)O.O=C(O)C(O)C(O)C(=O)O` [Example 17, 5,7-Bis(2-Diethylaminoethoxyimino)-6,7-Dihydro-(5H)-Dibenzo[a,c]Cycloheptene Ditartrate], for which the IC50 in test [1] turned out to be 10 µg/mL; in test [2], 16 µg/mL. For the same compound, in test [3], the “inhibitory effect” value is reported as “still substantial”. Further, the “inhibition … compared with aspirin” value in test [4] was “comparable or even superior to aspirin”.

On to `Cl.Cl.NCCON=C1CC(=NOCCN)c2ccccc2-c2ccccc21` [Example 18, 5,7-Bis(2-Aminoethoxyimino)-6,7-Dihydro-(5H)-Dibenzo[a,c]Cycloheptene Dihydrochloride], for which the IC50 is 40 µg/mL in test [1] and 50 µg/mL in test [2]. In test [3], the “inhibitory effect” value is given as “still substantial”. The “inhibition … compared with aspirin” value in test [4] is “comparable or even superior to aspirin”.

With `Cl.Cl.NCCCON=C1CC(=NOCCCN)c2ccccc2-c2ccccc21` [Example 19, 5,7-Bis(3-Aminopropoxyimino)-6,7-Dihydro-(5H)-Dibenzo[a,c]Cycloheptene Dihydrochloride], the IC50 in test [1] was determined as 100 µg/mL; in test [2], 175 µg/mL. In addition, in test [3], the “inhibitory effect” value was “still substantial”. In test [4], the “inhibition … compared with aspirin” value is listed as “comparable or even superior to aspirin”.

`CCN(CC)CCON=C1CC(=NOCCN(CC)CC)c2ccccc21` [Example 22, 1,3-Bis(2-Diethylaminoethoxyimino)-(1H)-Indene-(1H) Dihydrochloride]: the IC50 came out at 160 µg/mL in test [1] and 145 µg/mL in test [2]. Moreover, the “inhibitory effect” value in test [3] was “still substantial”.

Usually IC50 stands for the concentration at which inhibition is half-maximal.
